Data from patent US20190099468A1, “METHOD TO PROTECT AND SEAL THE OCULAR SURFACE” (UNIVERSITY OF SOUTHERN CALIFORNIA, priority 2017, published 2019).
Counter-ions that a name gives are not always drawn.

Experiments:
[1] = system: HCLE monolayer cell cultures; assay: Vital dye staining assay (fluorescein), oxidative stress, monolayer cells; type: cell-based, human; conditions: 3 mM tBHP, 2 hours; Genistein 200 uM, Chlorpromazine 8 ug/mL, Dynasore 40 uM; FIG. 2B
Description: (§1) The purpose of this study was to investigate mechanisms of dye uptake relevant to ocular surface disease. We hypothesized that stimulation of plasma membrane remodeling by sublethal cell damage would result in vital dye uptake into endocytic repair vesicles. Oxidative stress has been implicated in ocular surface damage due to dry eye and many other ocular surface disorders, thus we chose this as the damaging stress for our study. An aqueous stock solution of tert-butyl hydroperoxide (tBHP) was diluted into the medium of human cell cultures or mouse eye organ cultures as we have previously described. The final dilution of tBHP used for cell culture experiments was 3 mM or 10 mM (as indicated in the individual experimental details). A final dilution of 10 mM tBHP was used for mouse eye organ culture experiments. These optimal concentrations were determined empirically in dose-response assessments as causing a high level of vital dye staining without killing cells. As soon as tBHP was added, all cultures were returned to the cell culture incubator under 5% CO2 atmosphere. Stressed cultures were compared to unstressed controls incubated similarly for the same time period. […]
(§2) A telomerase-immortalized line of human corneal limbal epithelial (HCLE) cells was used for all experiments employing cell culture. […] Stratification was routinely evaluated using phase contrast microscopy; differentiation leading to glycocalyx barrier function was evaluated using the rose bengal penetration assay. […]
(§3) Vital dye staining of cells in culture was performed using sodium fluorescein (Sigma-Aldrich). […] Dye uptake was evaluated qualitatively by imaging. Images (excitation/emission=488/510 nm) were taken immediately after washing, so that staining could be evaluated before dye diffused. Fluorescein uptake by cultured cells was quantified using a plate reader and depicted in graphs as relative fluorescence units (RFU). Rose bengal uptake by cultured cells or eyes was quantified using a modification of a previously described method. […]

HCLE stratified cultures [2] = assay: Vital dye staining assay (fluorescein, rose bengal), oxidative stress, stratified and differentiated cells; type: cell-based, human; conditions: 10 mM tBHP; Genistein 200 uM, Chlorpromazine 8 ug/mL, Dynasore 40 uM, Dyngo-4a 15 uM; FIG. 3B-D
Description: (§4) The purpose of this study was to investigate mechanisms of dye uptake relevant to ocular surface disease. We hypothesized that stimulation of plasma membrane remodeling by sublethal cell damage would result in vital dye uptake into endocytic repair vesicles. Oxidative stress has been implicated in ocular surface damage due to dry eye and many other ocular surface disorders, thus we chose this as the damaging stress for our study. An aqueous stock solution of tert-butyl hydroperoxide (tBHP) was diluted into the medium of human cell cultures or mouse eye organ cultures as we have previously described. The final dilution of tBHP used for cell culture experiments was 3 mM or 10 mM (as indicated in the individual experimental details). A final dilution of 10 mM tBHP was used for mouse eye organ culture experiments. These optimal concentrations were determined empirically in dose-response assessments as causing a high level of vital dye staining without killing cells. As soon as tBHP was added, all cultures were returned to the cell culture incubator under 5% CO2 atmosphere. Stressed cultures were compared to unstressed controls incubated similarly for the same time period. Cells were incubated for 2 to 3 hours and mouse eyes were incubated for 2.5 hours before endpoint determination.
(§5) To learn whether endocytosis was involved in dye uptake, the process was blocked by treating cells or eyes with endocytic inhibitors. Chlorpromazine hydrochloride (MP Biologicals, Solon, Ohio), an inhibitor of clathrin-mediated endocytosis, was used at a final dilution of 8 ug/mL. Genistein (Sigma-Aldrich, St Louis, Mo.), an inhibitor of caveolin-mediated endocytosis, was used at 200 uM final dilution. […] All inhibitors were dissolved in DMSO, which served as the treatment vehicle. The same volume of DMSO was added to matching untreated cultures as a vehicle control.
as §2, §3

ocular surface barrier = conditions: mouse model, desiccating stress; cited from earlier work
HCLE stratified cultures [3] = assay: Lectin binding (fluorescein-conjugated jacalin); type: cell-based, human; conditions: 3 mM tBHP, 2 hours; Dynasore 40 uM; FIG. 6A
Description: as §1, with “atmosphere.” for “atmosphere. Stressed cultures were compared to unstressed controls incubated similarly for the same time period.”
as §2

HCLE monolayer cultures [4] = assay: MTT/WST-1 metabolic assays for cytotoxicity; type: cell-based, human; conditions: 10 mM tBHP, 2 hours; Dynasore 40 uM at the same time; FIG. 5A
Description: as §1, with “atmosphere.” for “atmosphere. Stressed cultures were compared to unstressed controls incubated similarly for the same time period.”
as §2

cardiomyocyte = conditions: references [56-58]; cited from earlier work
[5] = system: MPS-treated monolayer cells; conditions: publication [61]; cited from earlier work
HCLE monolayer cultures [6] = assay: Trypan blue exclusion assay; type: cell-based, human; conditions: 10 mM tBHP, 3 hours; Dynasore 40 uM at the same time; FIG. 5B
Description: (§6) The purpose of this study was to investigate mechanisms of dye uptake relevant to ocular surface disease. We hypothesized that stimulation of plasma membrane remodeling by sublethal cell damage would result in vital dye uptake into endocytic repair vesicles. Oxidative stress has been implicated in ocular surface damage due to dry eye and many other ocular surface disorders, thus we chose this as the damaging stress for our study. An aqueous stock solution of tert-butyl hydroperoxide (tBHP) was diluted into the medium of human cell cultures or mouse eye organ cultures as we have previously described. […] These optimal concentrations were determined empirically in dose-response assessments as causing a high level of vital dye staining without killing cells. […]
as §2
Cells were stained with filtered 0.4% trypan blue dye (Thermo Fisher Scientific) for 4 minutes following 3 washes with PBS. The extent of staining was measured qualitatively by imaging under white light, and quantitatively using a plate reader at 590 nm.

LGALS3 = assay: Western blotting of LGALS3 in cell culture medium; type: cell-based, human; conditions: stratified cultures, 3 mM tBHP, 2 hours; Dynasore 40 uM; FIG. 6B
Description: as §1, with “atmosphere.” for “atmosphere. Stressed cultures were compared to unstressed controls incubated similarly for the same time period.”
as §2

HCLE monolayer cultures [7] = assay: Endocytosis assay: uptake of Alexa Fluor 568-conjugated TF under oxidative stress; type: cell-based, human; conditions: 3 mM tBHP; co-treatment with Dynasore 40 uM; FIG. 2A
Description: as §6, §2
Endocytosis was quantified by monitoring cell uptake of human Alexa Fluor 568-conjugated TF (serum transferrin; Thermo Fisher Scientific, Waltham, Mass.). […] Cells were then imaged with a Keyence BZ-X700 fluorescence microscope (excitation/emission=532/588 nm). Alexa Fluor 568-conjugated TF uptake was quantified by image J analysis.

[8] = system: ocular surface of ex vivo mouse eyes; assay: Vital dye staining assay, mouse eye organ culture under oxidative stress; conditions: for dye uptake at the ocular surface, post-treatment: 10 mM tBHP first, FIG. 4B; for vital dye uptake once the damage was done: used after stress was applied
Description: as §4, §5
The University of Southern California's Institutional Animal Care and Use Committee approved the research protocol number 11412 for use of mice in this study. Research was conducted in adherence with the Association for Research in Vision and Ophthalmology (ARVO) Statement for the Use of Animals in Ophthalmic and Visual Research. Wild type C57B1/6J mice, 6-8 weeks of age, were purchased from Jackson Labs (Bar Harbor, Me.). Prior to use in an experiment, mice were housed in a pathogen-free barrier facility and kept at […], relative humidity 60%±10%, with alternating 12-hour light/dark cycles. To obtain eyes for organ culture, euthanasia was performed using compressed CO2 gas, according to the American Veterinary Medical Association Guidelines for the Euthanasia of Animals: 2013 Edition. […]
Vital dye staining of cells in culture was performed using sodium fluorescein (Sigma-Aldrich). […] Dye uptake was evaluated qualitatively by imaging. Images (excitation/emission=488/510 nm) were taken immediately after washing, so that staining could be evaluated before dye diffused. Fluorescein uptake by cultured cells was quantified using a plate reader and depicted in graphs as relative fluorescence units (RFU). Rose bengal uptake by cultured cells or eyes was quantified using a modification of a previously described method. After imaging, the stained cells or eyes were incubated in 100 uL of DMSO at room temperature for 1 hour, and the solution was recovered into the wells of a 96 well plate to read in a plate reader at 562 nm.

CN(C)CCCN1c2ccccc2Sc2ccc(Cl)cc21 [Chlorpromazine, Chlorpromazine hydrochloride]
stress-stimulated fluorescein dye uptake [1]: blocked
oxidative stress-stimulated vital dye uptake in stratified and differentiated cell cultures (HCLE stratified cultures [2]): no effect on vital dye uptake

CLU: homeostatic protein clusterin, prominent at fluid-tissue interfaces; SEQ ID NO: 1 is the human isoform 2 preproprotein
ocular surface barrier disruption (ocular surface barrier): prevents and ameliorates ocular surface barrier disruption

O=C(N/N=C/c1ccc(O)c(O)c1)c1cc2ccccc2cc1O [Dynasore]
jacalin staining of cell surface mucin-type glycoconjugates (HCLE stratified cultures [3]): no effect
stress-stimulated fluorescein dye uptake [1]: also blocked
protection against oxidative stress-induced increase of MTT/WST-1 absorbance (HCLE monolayer cultures [4]): protective, in particular for the WST-1 assay
cardiomyocyte apoptosis following oxidative stress (cardiomyocyte): protects cardiomyocyte against entering apoptosis following oxidative stress
uptake of fluorescein in MPS-treated cells [5]: inhibited uptake of fluorescein
protection against oxidative stress-induced trypan blue staining (HCLE monolayer cultures [6]): remarkably protective, essentially eliminating trypan blue staining
oxidative stress-caused increase in LGALS3 in the cell culture medium (LGALS3): inhibited this increase
oxidative stress-stimulated vital dye uptake in stratified and differentiated cell cultures (HCLE stratified cultures [2]): very effective inhibitor
stress-stimulated TF uptake (endocytosis) (HCLE monolayer cultures [7]): blocked stress-stimulated TF uptake
dye uptake at the ocular surface, post-treatment ([8]; then Dynasore 40 uM for 15 or 30 minutes): dye uptake was not reduced
dye uptake at the ocular surface, post-treatment ([8]; then Dynasore 80 uM for 15 or 30 minutes): dye uptake was not reduced
dye uptake at the ocular surface, co-treatment ([8]; 10 mM tBHP, Dynasore 40 uM at the same time as stress, FIG. 4A): dye uptake was prevented
vital dye uptake once the damage was done [8]: no effect on vital dye uptake

O=c1c(-c2ccc(O)cc2)coc2cc(O)cc(O)c12 [Genistein]
stress-stimulated fluorescein dye uptake [1]: blocked
oxidative stress-stimulated vital dye uptake in stratified and differentiated cell cultures (HCLE stratified cultures [2]): no effect on vital dye uptake

O=C(N/N=C/c1cc(O)c(O)cc1O)c1cc2ccccc2cc1O [Dyngo-4a]
oxidative stress-stimulated vital dye uptake in stratified and differentiated cell cultures (HCLE stratified cultures [2]): very effective inhibitor of vital dye uptake
vital dye uptake once the damage was done [8]: no effect on vital dye uptake
